The text below walks through data of US20240279205A1, “NOVEL BENZIMIDAZOLE DERIVATIVE” (Carna Biosciences, Inc., priority 2020, published 2024).

Where a name gives a salt, the structure may show the parent alone.

For one experiment, the target named is T1, human STING (hSTING) (Homo sapiens, UniProt Q86WV6).
T1 construct: host or cells: HEK-Blue ISG cells (HEK293-derived SEAP reporter line)
T1 sequence (Q86WV6 whole entry H232R): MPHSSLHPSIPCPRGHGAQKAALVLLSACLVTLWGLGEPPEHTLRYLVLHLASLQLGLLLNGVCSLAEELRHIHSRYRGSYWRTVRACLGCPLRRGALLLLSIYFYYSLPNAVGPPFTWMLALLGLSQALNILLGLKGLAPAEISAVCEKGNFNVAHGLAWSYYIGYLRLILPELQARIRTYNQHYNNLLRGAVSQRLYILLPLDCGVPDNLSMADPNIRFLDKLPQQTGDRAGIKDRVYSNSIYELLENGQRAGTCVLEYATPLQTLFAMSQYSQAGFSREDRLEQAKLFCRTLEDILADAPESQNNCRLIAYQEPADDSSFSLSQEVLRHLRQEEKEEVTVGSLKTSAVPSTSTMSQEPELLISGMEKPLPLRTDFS
Nature of the experiment: Inhibition test of intracellular human STING (hSTING) pathway using SEAP reporter cells (HEK-Blue ISG), stimulation with Compound 3. The class given is cell-based. More on the design: hSTING inhibitory activity: scale not given here. Conditions: Compound 3 10 nM stimulation, 21 hours. Here is the method:
Inhibition test of intracellular human STING (hSTING) pathway using reporter cells
Since STING activates the transcription factor IRF3 upon ligand stimulation, the activity of STING can be evaluated by a reporter assay using a secretory alkaline phosphatase (SEAP reporter) integrated downstream of an IRF-inducible promoter.
That is, the hSTING inhibitory activity of the test compound was evaluated using HEK-Blue™MISG cells (manufactured by Invivogen, #hkb-isg-1) incorporating a SEAP reporter. Activation of hSTING was performed by stimulation with the small molecule ligand Compound 3 as described in the literature (Ramanjulu, J. M., et al., Nature. 2018, 564 (7736), 439-443). HEK-Blue™MISG cells were seeded in a 96-well plate and cultured overnight at 37° C. in a 5% CO2 incubator. To each well of this cell culture plate, a test compound solution adjusted to a final concentration of 0.1 to 10 µM of the test compound was added, cultured for 1 hour in a CO2 incubator, and then Compound 3 (final concentration 10 nM) was added and further cultured in a CO2 incubator for 21 hours. After collecting the culture supernatant of each well, the reporter activity was measured by color development reaction with alkaline phosphatase.
The reporter activity of the test compound non-addition and Compound 3 addition group was set to 100%, and the reporter activity of the test compound non-addition and Compound 3 non-addition group was set to 0%. The IC50 value was determined by regression analysis of the inhibitory rate determined from the reporter activity at each compound concentration and the test compound concentration (logarithm).
In the case of `Cc1ccc2[nH]c(Nc3c[nH]c4ccc(Cl)nc34)nc2c1C` [Embodiment 85, N-(5-Chloro-1H-pyrrolo[3,2-b]pyridin-3-yl)-4,5-dimethyl-1H-benzo[d]imidazol-2-amine], the hSTING inhibitory activity entry is on record as “* *”.

As to `Cn1nccc1Oc1ccc2[nH]c(Nc3c[nH]c4ccc(Br)nc34)nc2c1` [Embodiment 63, N-(5-bromo-1H-pyrrolo[3,2-b]pyridin-3-yl)-5-[(1-methyl-1H-pyrazol-5-yl)oxy]-1H-benzo[d] imidazol-2-amine], the hSTING inhibitory activity result is listed as “* *”.

As for `CNn1c(Nc2c[nH]c3ccc(Cl)cc23)nc2cc(C(F)(F)F)cc(F)c21` [Embodiment 271, N2-(5-Chloro-1H-indol-3-yl)-7-fluoro-N1-methyl-5-(trifluoromethyl)-1H-benzo[d]imidazole-1,2-diamine], the hSTING inhibitory activity entry is listed as “* * *”.

Regarding `Cn1c(Nc2c[nH]c3ccc(Cl)nc23)nc2cc(F)c(Oc3ccccc3)cc21` [Embodiment 194, N-(5-Chloro-1H-pyrrolo[3,2-b]pyridin-3-yl)-5-fluoro-1-methyl-6-phenoxy-1H-benzo[d]imidazol-2-amine], the hSTING inhibitory activity entry is “* *”.

As for `CN(C)n1c(Nc2c[nH]c3ccc(Cl)cc23)nc2cc(C(F)(F)F)c(F)cc21` [Embodiment 275, N2-(5-Chloro-1H-indol-3-yl)-6-fluoro-N1,N1-dimethyl-5-(trifluoromethyl)-1H-benzo[d] imidazole-1,2-didiamine], the hSTING inhibitory activity entry is listed as “* * *”.

`Ic1ccc2[nH]cc(Nc3nc4ccccc4[nH]3)c2c1` [Example 16, N-(5-iodo-1H-indol-3-yl)-1H-benzo[d]imidazol-2-amine]: the hSTING inhibitory activity entry is recorded as “* *”.

`Brc1ccc2[nH]cc(Nc3nc4cc(Oc5cccnc5)ccc4[nH]3)c2c1` [Example 13, N-(5-bromo-1H-indol-3-yl)-5-(pyridin-3-yloxy)-1H-benzo[d]imidazol-2-amine]: the hSTING inhibitory activity result is “* *”.

As to `Clc1ccc2[nH]cc(Nc3nc4cc(-c5cccc(CN6CCOCC6)c5)ccc4[nH]3)c2n1` [Embodiment 99, N-(5-Chloro-1H-pyrrolo[3,2-b]pyridin-3-yl)-5-[3-(morpholinomethyl)phenyl]-1H-benzo[d] imidazol-2-amine], the hSTING inhibitory activity entry is “* *”.

For `O=S(=O)(c1ccccc1)c1ccc2[nH]c(Nc3c[nH]c4ccc(Br)cc34)nc2c1` [Example 23, N-(5-bromo-1H-indol-3-yl)-5-(phenylsulfonyl)-1H-benzo[d]imidazol-2-amine], the hSTING inhibitory activity result is “* *”.

Consider `Cc1cccc2[nH]c(Nc3c[nH]c4ccc(Br)cc34)nc12` [Example 5, N-(5-bromo-1H-indol-3-yl)-4-methyl-1H-benzo[d]imidazol-2-amine], for which the hSTING inhibitory activity result was “* *”.

With `CNn1c(Nc2c[nH]c3cc(F)c(F)cc23)nc2cc(C(F)(F)F)cc(F)c21` [Embodiment 273, N2-(5,6-difluoro-1H-indol-3-yl)-7-fluoro-N1-methyl-5-(trifluoromethyl)-1H-benzo[d]imidazole-1,2-diamine], the hSTING inhibitory activity result was “* * *”.

With `Cn1c(Nc2c[nH]c3ccc(Br)nc23)nc2cc(Oc3ccccc3)ccc21` [Embodiment 41, N-(5-bromo-1H-pyrrolo[3,2-b]pyridin-3-yl)-1-methyl-5-phenoxy-1H-benzo[d]imidazol-2-amine], the hSTING inhibitory activity result is listed as “* * *”.

On to `COC(=O)c1cccc2[nH]c(Nc3c[nH]c4ccc(Br)cc34)nc12` [Example 20, methyl 2-[(5-bromo-1H-indol-3-yl)amino]-1H-benzo[d]imidazole-4-carboxylate], for which the hSTING inhibitory activity entry is given as “* *”.

For the molecule `COC(=O)c1ccc2[nH]cc(Nc3nc4cc(Oc5ccccc5)ccc4[nH]3)c2c1` [Example 22, methyl 3-[(5-phenoxy-1H-benzo[d]imidazol-2-yl)amino]-1H-indole-5-carboxylate], the hSTING inhibitory activity result is “* *”.

Still in this experiment, the particulars now being: Compound 3 10 nM stimulation, 21 hours, read-out: hSTING inhibitory activity.
With `Brc1cnc2[nH]cc(Nc3nc4cc(Oc5ccccc5)ccc4[nH]3)c2n1` [Example 21, 2-bromo-N-(5-phenoxy-1H-benzo[d]imidazol-2-yl)-5H-pyrrolo[2,3-b]pyrazin-7-amine], the IC50 was not below 10 µM.

`FC(F)(F)c1cnc2[nH]cc(Nc3nc4cc(Oc5ccccc5)ccc4[nH]3)c2c1` [Embodiment 74, 5-phenoxy-N-[5-(trifluoromethyl)-1H-pyrrolo[2,3-b]pyridin-3-yl]-1H-benzo[d]imidazol-2-amine formate]: the IC50 fell in the range of 1 to 10 µM.

In the case of `FC(F)(F)c1ccc2c(c1)nc(Nc1c[nH]c3ccc(Cl)cc13)n2N1CCOCC1` [Embodiment 235, N-(5-Chloro-1H-indol-3-yl)-1-morpholino-5-(trifluoromethyl)-1H-benzo[d]imidazol-2-amine], the IC50 is 1 to 10 µM.

Consider `Clc1ccc2[nH]cc(Nc3nc4c(-c5ccncc5)cccc4[nH]3)c2n1` [Embodiment 148, N-(5-Chloro-1H-pyrrolo[3,2-b]pyridin-3-yl)-4-(pyridin-4-yl)-1H-benzo[d]imidazol-2-amine], for which the IC50 is not below 10 µM.

Turning to `C1=C(c2ccc3[nH]cc(Nc4nc5cc(Oc6ccccc6)ccc5[nH]4)c3n2)CCCC1` [Embodiment 48, N-[5-(Cyclohex-1-en-1-yl)-1H-pyrrolo[3,2-b]pyridin-3-yl]-5-phenoxy-1H-benzo[d]imidazol-2-a mine], the IC50 lay in the range of 1 to 10 µM.

Take `COCCn1c(Nc2c[nH]c3ccc(Cl)nc23)nc2cc(-c3ccccc3)ccc21` [Embodiment 181]: the IC50 is not below 10 µM.

With `CS(=O)(=O)c1ccc(Oc2ccc3[nH]c(Nc4c[nH]c5ccc(Br)nc45)nc3c2)cc1` [Embodiment 66, N-(5-bromo-1H-pyrrolo[3,2-b]pyridin-3-yl)-5-[4-(methylsulfonyl)phenoxy]-1H-benzo[d]imidazol-2-amine], the IC50 fell in the range of 1 to 10 µM.

On to `Cn1c(Nc2c[nH]c3ccc(Cl)nc23)nc2ccc(F)c(F)c21` [Embodiment 184, N-(5-Chloro-1H-pyrrolo[3,2-b]pyridin-3-yl)-6,7-difluoro-1-methyl-1H-benzo[d]imidazol-2-amine], for which the IC50 is not below 10 µM.

Turning to `COCCn1c(Nc2c[nH]c3ccc(Cl)nc23)nc2ccc(C(F)(F)F)cc21` [Embodiment 179, N-(5-chloro-1H-pyrrolo[3,2-b]pyridin-3-yl)-1-(2-methoxyethyl)-6-(trifluoromethyl)-1H-benzo[d]imidazol-2-amine], the IC50 was not below 10 µM.

For `O=C(O)c1ccc2[nH]c(Nc3c[nH]c4ccc(Br)nc34)nc2c1` [Embodiment 37, 2-[(5-bromo-1H-pyrrolo[3,2-b]pyridin-3-yl)amino]-1H-benzo[d]imidazole-5-carboxylic acid], the IC50 was not below 10 µM.

With `Cc1ccc2nc(Nc3c[nH]c4ccc(Cl)nc34)n(C)c2c1` [Embodiment 152, N-(5-Chloro-1H-pyrrolo[3,2-b]pyridin-3-yl)-1,6-dimethyl-1H-benzo [d]imidazol-2-amine], the IC50 was not below 10 µM.

In the case of `Oc1ccnc2c(Nc3nc4cc(Oc5ccccc5)ccc4[nH]3)c[nH]c12` [Embodiment 76, 3-[(5-phenoxy-1H-benzo[d]imidazol-2-yl)amino]-1H-pyrrolo [3,2-b]pyridin-7-ol formate], the IC50 was not below 10 µM.

In the case of `Brc1cccc2c(Nc3nc4ccccc4[nH]3)c[nH]c12` [Example 17, N-(7-bromo-1H-indol-3-yl)-1H-benzo[d]imidazol-2-amine], the IC50 is not below 10 µM.

Take `O=C(O)c1ccc2[nH]cc(Nc3nc4cc(Oc5ccccc5)ccc4[nH]3)c2c1` [Example 27, 3-[(5-phenoxy-1H-benzo[d]imidazol-2-yl)amino]-1H-indole-5-carboxylic acid]: the IC50 was not below 10 µM.

For `COc1cccc2[nH]c(Nc3c[nH]c4ccc(Br)nc34)nc12` [Embodiment 61, N-(5-bromo-1H-pyrrolo[3,2-b]pyridin-3-yl)-4-methoxy-1H-benzo[d]imidazol-2-amine], the IC50 fell in the range of 1 to 10 µM.

Take `Clc1ccc2[nH]cc(Nc3nc4c5c(ccc4[nH]3)OCCO5)c2n1` [Embodiment 135, N-(5-chloro-1H-pyrrolo[3,2-b]pyridin-3-yl)-7,8-dihydro-3H-[1,4] dioxino[2′,3′:3, 4]benzo[1,2-d]imidazol-2-amine]: the IC50 is not below 10 µM.

As for `O=C(c1ccc2[nH]cc(Nc3nc4cc(Oc5ccccc5)ccc4[nH]3)c2c1)N1CCOCC1` [Example 28, morpholino {3-[(5-phenoxy-1H-benzo[d]imidazol-2-yl)amino]-1H-indol-5-yl} methanone], the IC50 was not below 10 µM.

On to `Clc1ccc2[nH]cc(Nc3nc4c(-c5cccnc5)cccc4[nH]3)c2n1` [Embodiment 147, N-(5-Chloro-1H-pyrrolo[3,2-b]pyridin-3-yl)-4-(pyridin-3-yl)-1H-benzo[d]imidazol-2-amine], for which the IC50 is not below 10 µM.

For the molecule `COCCOc1ccc2[nH]c(Nc3c[nH]c4ccc(Cl)nc34)nc2c1` [Embodiment 140, N-(5-Chloro-1H-pyrrolo[3,2-b]pyridin-3-yl)-5-(2-methoxyethoxy)-1H-benzo[d]imidazol-2-amine], the IC50 was not below 10 µM.
